{"source": "paper PMC8286840", "about": "“Identifying SARS-CoV-2 antiviral compounds by screening for small molecule inhibitors of Nsp3 papain-like protease” (Biochemical Journal, 2021)", "key": {"[1]": {"molecular_target": "T1, SARS-CoV-2 PLpro (nsp3 1564–1878) (Severe acute respiratory syndrome coronavirus 2, UniProt P0DTD1)", "test": "biochemical", "design": "FRET-quenched peptide (Pro3) cleavage by PLpro, 10 min pre-incubation, slope over 20 min, normalised to no-compound control", "details": "read-out: % of control remaining"}, "[2]": {"molecular_target": "T1, SARS-CoV-2 PLpro (nsp3 1564–1878)", "test": "biochemical", "design": "FRET-quenched peptide (Pro3) cleavage by PLpro, 10 min pre-incubation, slope over 20 min, normalised to no-compound control", "details": "read-out: % of control remaining", "remark": "listed apart in the source"}}, "note": "Structures can show the parent of a compound that is named as a salt. Where two headings read alike, the source gives them in different places.", "data": [{"smiles": "NC(=O)Cc1cccc(C(=O)c2ccccc2)c1N", "note": "[Nepafenac]", "values": [{"measurement": "remaining activity at 3.75 µM", "setting": "[1]; Well no.=4761, high concentration screen", "result": 104, "unit": "%"}, {"measurement": "remaining activity at 1.25 µM", "setting": "[2]; Well no.=4761, low concentration screen", "result": 103, "unit": "%"}]}, {"smiles": "NCc1c[nH]c(=S)n1[C@H]1CCc2c(F)cc(F)cc2C1", "note": "[Nepicastat hydrochloride]", "values": [{"measurement": "remaining activity at 3.75 µM", "setting": "[1]; Well no.=6033, high concentration screen", "result": 102, "unit": "%"}, {"measurement": "remaining activity at 1.25 µM", "setting": "[2]; Well no.=6033, low concentration screen", "result": 100, "unit": "%"}]}, {"smiles": "CC(=O)NCCCC[C@H](N)C(=O)O", "note": "[Nepsilon-Acetyl-L-lysine]", "values": [{"measurement": "remaining activity at 3.75 µM", "setting": "[1]; Well no.=6211, high concentration screen", "result": 106, "unit": "%"}, {"measurement": "remaining activity at 1.25 µM", "setting": "[2]; Well no.=6211, low concentration screen", "result": 116, "unit": "%"}]}, {"smiles": "CCN[C@@H]1C[C@H](N)[C@@H](O[C@H]2OC(CN)=CC[C@H]2N)[C@H](O)[C@H]1O[C@H]1OC[C@](C)(O)[C@H](NC)[C@H]1O", "note": "[Netilmicin Sulfate]", "values": [{"measurement": "remaining activity at 3.75 µM", "setting": "[1]; Well no.=4696, high concentration screen", "result": 101, "unit": "%"}, {"measurement": "remaining activity at 1.25 µM", "setting": "[2]; Well no.=4696, low concentration screen", "result": 102, "unit": "%"}]}, {"smiles": "O=C(O)c1cccnc1", "note": "[Niacin]", "values": [{"measurement": "remaining activity at 3.75 µM", "setting": "[1]; Well no.=6401, high concentration screen", "result": 96.9, "unit": "%"}, {"measurement": "remaining activity at 1.25 µM", "setting": "[2]; Well no.=6401, low concentration screen", "result": 102, "unit": "%"}]}, {"smiles": "O=C(CCNNC(=O)c1ccncc1)NCc1ccccc1", "note": "[Nialamide]", "values": [{"measurement": "remaining activity at 3.75 µM", "setting": "[1]; Well no.=1091, high concentration screen", "result": 93.8, "unit": "%"}, {"measurement": "remaining activity at 3.75 µM", "setting": "[1]; Well no.=1837, high concentration screen", "result": 97.3, "unit": "%"}, {"measurement": "remaining activity at 1.25 µM", "setting": "[2]; Well no.=1091, low concentration screen", "result": 95.4, "unit": "%"}, {"measurement": "remaining activity at 1.25 µM", "setting": "[2]; Well no.=1837, low concentration screen", "result": 97.6, "unit": "%"}]}, {"smiles": "COC(=O)C1=C(C)NC(C)=C(C(=O)OCCN(C)Cc2ccccc2)C1c1cccc([N+](=O)[O-])c1", "note": "(stereo not drawn) [Nicardipine hydrochloride]", "values": [{"measurement": "remaining activity at 3.75 µM", "setting": "[1]; Well no.=811, high concentration screen", "result": 103, "unit": "%"}, {"measurement": "remaining activity at 1.25 µM", "setting": "[2]; Well no.=811, low concentration screen", "result": 103, "unit": "%"}]}, {"smiles": "COC(=O)C1=C(C)NC(C)=C(C(=O)OCCN(C)Cc2ccccc2)C1c1cccc([N+](=O)[O-])c1", "note": "(stereo not drawn) [Nicardipine.HCl]", "values": [{"measurement": "remaining activity at 3.75 µM", "setting": "[1]; Well no.=1593, high concentration screen", "result": 104, "unit": "%"}, {"measurement": "remaining activity at 1.25 µM", "setting": "[2]; Well no.=1593, low concentration screen", "result": 104, "unit": "%"}]}, {"smiles": "CO[C@]12C[C@@H](COC(=O)c3cncc(Br)c3)CN(C)[C@@H]1Cc1cn(C)c3cccc2c13", "note": "[Nicergoline]", "values": [{"measurement": "remaining activity at 3.75 µM", "setting": "[1]; Well no.=1731, high concentration screen", "result": 102, "unit": "%"}, {"measurement": "remaining activity at 3.75 µM", "setting": "[1]; Well no.=6958, high concentration screen", "result": 109, "unit": "%"}, {"measurement": "remaining activity at 1.25 µM", "setting": "[2]; Well no.=1731, low concentration screen", "result": 99.4, "unit": "%"}, {"measurement": "remaining activity at 1.25 µM", "setting": "[2]; Well no.=6958, low concentration screen", "result": 102, "unit": "%"}]}, {"smiles": "O=C(Nc1ccc([N+](=O)[O-])cc1Cl)c1cc(Cl)ccc1O", "note": "[Niclosamide]", "values": [{"measurement": "remaining activity at 3.75 µM", "setting": "[1]; Well no.=1093, high concentration screen", "result": 97.3, "unit": "%"}, {"measurement": "remaining activity at 1.25 µM", "setting": "[2]; Well no.=1093, low concentration screen", "result": 99.3, "unit": "%"}]}, {"smiles": "O=C(NCCO[N+](=O)[O-])c1cccnc1", "note": "[Nicorandil]", "values": [{"measurement": "remaining activity at 3.75 µM", "setting": "[1]; Well no.=1812, high concentration screen", "result": 95.8, "unit": "%"}, {"measurement": "remaining activity at 1.25 µM", "setting": "[2]; Well no.=1812, low concentration screen", "result": 99, "unit": "%"}]}, {"smiles": "NC(=O)c1cccnc1", "note": "[Nicotinamide (Niacinamide)]", "values": [{"measurement": "remaining activity at 3.75 µM", "setting": "[1]; Well no.=4884, high concentration screen", "result": 94.8, "unit": "%"}, {"measurement": "remaining activity at 1.25 µM", "setting": "[2]; Well no.=4884, low concentration screen", "result": 97.9, "unit": "%"}]}, {"smiles": "NC(=O)c1ccc[n+]([O-])c1", "note": "[Nicotinamide N-oxide]", "values": [{"measurement": "remaining activity at 3.75 µM", "setting": "[1]; Well no.=6247, high concentration screen", "result": 107, "unit": "%"}, {"measurement": "remaining activity at 3.75 µM", "setting": "[1]; Well no.=8269, high concentration screen", "result": 102, "unit": "%"}, {"measurement": "remaining activity at 3.75 µM", "setting": "[1]; Well no.=8347, high concentration screen", "result": 92.3, "unit": "%"}, {"measurement": "remaining activity at 1.25 µM", "setting": "[2]; Well no.=6247, low concentration screen", "result": 105, "unit": "%"}, {"measurement": "remaining activity at 1.25 µM", "setting": "[2]; Well no.=8269, low concentration screen", "result": 106, "unit": "%"}, {"measurement": "remaining activity at 1.25 µM", "setting": "[2]; Well no.=8347, low concentration screen", "result": 101, "unit": "%"}]}, {"smiles": "NC(=O)c1cccnc1", "note": "[Nicotinamide]", "values": [{"measurement": "remaining activity at 3.75 µM", "setting": "[1]; Well no.=6305, high concentration screen", "result": 99.5, "unit": "%"}, {"measurement": "remaining activity at 1.25 µM", "setting": "[2]; Well no.=6305, low concentration screen", "result": 102, "unit": "%"}]}, {"smiles": "O=C(O)c1cccnc1", "note": "[Nicotinic Acid]", "values": [{"measurement": "remaining activity at 3.75 µM", "setting": "[1]; Well no.=8286, high concentration screen", "result": 96.4, "unit": "%"}, {"measurement": "remaining activity at 1.25 µM", "setting": "[2]; Well no.=8286, low concentration screen", "result": 95.6, "unit": "%"}]}, {"smiles": "O=C(O)CNC(=O)c1cccnc1", "note": "[Nicotinuric acid]", "values": [{"measurement": "remaining activity at 3.75 µM", "setting": "[1]; Well no.=6537, high concentration screen", "result": 105, "unit": "%"}, {"measurement": "remaining activity at 1.25 µM", "setting": "[2]; Well no.=6537, low concentration screen", "result": 109, "unit": "%"}]}, {"smiles": "Cn1c(NCCN(CCO)CCCc2ccc([N+](=O)[O-])cc2)cc(=O)n(C)c1=O", "note": "[Nifekalant]", "values": [{"measurement": "remaining activity at 3.75 µM", "setting": "[1]; Well no.=1975, high concentration screen", "result": 102, "unit": "%"}, {"measurement": "remaining activity at 1.25 µM", "setting": "[2]; Well no.=1975, low concentration screen", "result": 105, "unit": "%"}]}, {"smiles": "O=C(O)c1cccnc1Nc1cccc(C(F)(F)F)c1", "note": "[Niflumic acid]", "values": [{"measurement": "remaining activity at 3.75 µM", "setting": "[1]; Well no.=995, high concentration screen", "result": 103, "unit": "%"}, {"measurement": "remaining activity at 3.75 µM", "setting": "[1]; Well no.=2011, high concentration screen", "result": 106, "unit": "%"}, {"measurement": "remaining activity at 1.25 µM", "setting": "[2]; Well no.=995, low concentration screen", "result": 99.1, "unit": "%"}, {"measurement": "remaining activity at 1.25 µM", "setting": "[2]; Well no.=2011, low concentration screen", "result": 102, "unit": "%"}]}, {"smiles": "CC1CS(=O)(=O)CCN1/N=C/c1ccc([N+](=O)[O-])o1", "note": "(stereo not drawn) [Nifurtimox]", "values": [{"measurement": "remaining activity at 3.75 µM", "setting": "[1]; Well no.=5382, high concentration screen", "result": 99.2, "unit": "%"}, {"measurement": "remaining activity at 1.25 µM", "setting": "[2]; Well no.=5382, low concentration screen", "result": 98.3, "unit": "%"}]}, {"smiles": "COC(=O)C1=C(C)NC(C)=C(C(=O)OCCCN2CCC(c3ccccc3)(c3ccccc3)CC2)[C@H]1c1cccc([N+](=O)[O-])c1", "note": "[Niguldipine]", "values": [{"measurement": "remaining activity at 3.75 µM", "setting": "[1]", "result": 100, "unit": "%"}, {"measurement": "remaining activity at 1.25 µM", "setting": "[2]", "result": 105, "unit": "%"}]}, {"smiles": "Cc1cn(-c2cc(NC(=O)c3ccc(C)c(Nc4nccc(-c5cccnc5)n4)c3)cc(C(F)(F)F)c2)cn1", "note": "[Nilotinib]", "values": [{"measurement": "remaining activity at 3.75 µM", "setting": "[1]; Well no.=2793, high concentration screen", "result": 107, "unit": "%"}, {"measurement": "remaining activity at 1.25 µM", "setting": "[2]; Well no.=2793, low concentration screen", "result": 111, "unit": "%"}]}, {"smiles": "CC1(C)NC(=O)N(c2ccc([N+](=O)[O-])c(C(F)(F)F)c2)C1=O", "note": "[Nilutamide]", "values": [{"measurement": "remaining activity at 3.75 µM", "setting": "[1]; Well no.=1147, high concentration screen", "result": 101, "unit": "%"}, {"measurement": "remaining activity at 1.25 µM", "setting": "[2]; Well no.=1147, low concentration screen", "result": 100, "unit": "%"}]}]}
